Source: article PMC8234803, “In Vitro Metabolism of Six C-Glycosidic Flavonoids from Passiflora incarnata L” (International Journal of Molecular Sciences, 2021)
Entries after “also recorded” stand apart in the source; their conditions may differ.

Key:
Caco-2 cell monolayer = assay: Caco-2 monolayer metabolism experiment, metabolites identified via UHPLC-DAD-MS(/MS); assay type: in vitro ADME, human; settings: for Extent of metabolism (in words) / Phase II conjugates containing glucuronic acid or sulfates / Phase II metabolites with glucuronic acid or sulfates: 3 and 5 h; for Extent of phase I and II metabolism (in words): independent of incubation time and concentration; for Possible metabolite (phase II metabolite identified by MS/MS fragmentation and comparison with reference compound after enzymatic hydrolysis): glucuronidase/sulfatase cleavage, UHPLC-DAD-MS/MS
Method: To obtain information on the in vitro metabolism of the six tested C-glycosidic flavonoids in the intestine, experiments were carried out using the Caco-2 monolayer model (Figure 2). Metabolite profiles were characterized at two different concentrations (10 and 100 µM; n = 3) and after two different incubation times (3 or 5 h; n = 3) in order to determine the influence of concentration and time on the metabolism reactions that occurred. Furthermore, to analyze the distribution of the observed metabolites, samples were collected from the cell lysate and the apical and basolateral compartments. All samples of the metabolism experiments using the Caco-2 cell monolayer were analyzed using UHPLC-DAD-MS and UHPLC-DAD-MS/MS. Metabolites were identified by libraries that were prepared for each compound (Tables S1–S6). The O and IO libraries contained 67 metabolites (Tables S1 and S2), the S and IS libraries contained 106 metabolites (Tables S3 and S4), and the V and IV libraries contained 71 possible metabolites (Tables S5 and S6).
To form a confluent and differentiated monolayer, cells at passages 16–45 were seeded into the inserts of 12-well Transwell® plates at a density of 3.0 × 10^5 cells/cm^2. Afterwards, the culture medium was replaced every day, and the metabolism experiment was performed 21 days after seeding. The apical and basolateral compartments contained 0.5 and 1.5 mL of cell culture medium, respectively.
On day 21, the cell culture medium was removed from the apical and basolateral compartments, and the Caco-2 cell monolayer was washed two times with prewarmed HBSS. The Transwell® plates containing HBSS were incubated at 37 °C for 15 min to measure the transepithelial electrical resistance (TEER) value. The integrity of the cell monolayers was evaluated by TEER values between the apical and basolateral sides with the Evohm2 system (World Precision Instruments, Sarasota, FL, USA). The cell inserts were only used for the metabolism experiments if the resistance exceeded 350 Ω/cm^2. The six test substances were dissolved in DMSO to a stock solution of 20 mM. The HBSS was adjusted to pH 6.0 and 7.4 with 1 M HCl. Afterwards, the stock solutions were diluted to 10 or 100 µM in an appropriate volume of HBSS (pH 6.0) to obtain a DMSO concentration of <1%. The test solutions were added to the apical side (0.5 mL), while the basolateral side was filled with 1.5 mL of HBSS (pH 7.4). The Transwell® plates were incubated at 37 °C for 3 or 5 h, respectively. After this period, solutions from the apical and basolateral compartments were collected in separate tubes, washed twice with 500 µL of HBSS, and then collected again. The samples were lyophilized and stored at −20 °C until they were measured using UHPLC-DAD-MS. After the experiment, Transwell® inserts were apically (0.5 mL) and basolaterally (1.5 mL) filled with HBSS and warmed to 37 °C for 20 min. Then, the TEER values were measured to guarantee the integrity of the monolayer during the experiment. The experiment was performed in triplicate for each substance, concentration, and incubation time.
After the metabolism experiment, cell monolayers were washed twice with PBS and incubated with 200 µL of trypsin-EDTA for 10 min at 37 °C in an atmosphere of 5% CO2 and constant humidity in the incubator. The cells were removed from the well by pipetting up and down, and were collected in a tube. The well was washed twice with PBS (1 mL), and the wash solution was also collected in the corresponding tube. The mixture was centrifuged (1000× g rpm, 5 min), and the supernatant was discarded.

Caco-2 cells = assay: MTT assay under metabolic conditions (cell viability); assay type: cell-based, human; settings: 10, 25, 50, 75, 100 µM in HBSS (pH 6.0), 5 h incubation
Method: All six substances were tested in five different dilutions in HBSS (pH 6.0). The determined viability values of O, IO, S, IS, V, and IV are listed in the Supplementary Materials (Figure S2).
Caco-2 cells in the logarithmic growth phase were seeded in 96-well plates at a density of 3 × 10^4 cells/well and incubated at 37 °C in an atmosphere of 5% CO2 and constant moisture in an incubator. After 24 h, the cell culture medium was removed, and 100 µL of HBSS solution (negative control), 0.5% DMSO in HBSS solution (solvent control), or flavonoid samples in HBSS solution (6 flavonoids at concentrations of 10, 25, 50, 75, and 100 µM) was applied in quintuplicate and incubated for 5 h. Afterwards, the HBSS solutions were removed and replaced with an MTT solution in DMEM (0.4 mg/mL) and incubated for another 3 h at 37 °C. Then, the MTT solution was discarded, and the cells were fixed with a 10% SDS solution in PBS and stored at room temperature in the dark. After 24 h, the absorbance was measured on a Tecan microplate reader (Tecan Trading AG, Switzerland) at 560 nm. The viability rate was calculated as % = A/A0 × 100, with A as the average absorbance value of the treatment and solvent control groups and A0 as the average absorbance value of the negative control group. The assay was performed three times in pentaplicate.
The human colon adenocarcinoma cell line Caco-2 was obtained from the ATCC (American Type Culture Collection, Manassas, VA, USA). The cell line was determined to be free of mycoplasma contamination by PCR and culture from GATC Biotech AG (Konstanz, Germany). The cells were cultured in DMEM supplemented with 10% (v/v) FBS, 1% (v/v) NEAA, and 1% (v/v) antibiotics (penicillin/streptomycin) in an atmosphere of 5% CO2 and 90% relative humidity at 37 °C. The culture medium was replaced every 3 days, and the cells were split 1:5 using trypsin-EDTA once 90% confluence was obtained.

[1] = Stability testing in test buffer (HBSS pH 6.0) under assay conditions, HPLC-DAD; assay type: physicochemical; settings: 10 µM in HBSS pH 6.0, 37 °C, 5% CO2; after 3 h of incubation
Method: To guarantee the stability of all test substances during the metabolism assay on Caco-2 cells, they were incubated in the test buffer under assay conditions. Test samples were collected each hour for 5 h and were measured via HPLC-DAD.
To ensure stability during the Caco-2 metabolism experiments, all test substances were dissolved in DMSO to a concentration of 20 mM and diluted to 10 µM in an appropriate volume of HBSS (pH 6.0), resulting in a DMSO concentration of less than 1%. The test solution (1 mL) was aliquoted into a 12-well Transwell® plate and incubated for 5 h in an atmosphere of 5% CO2 and 90% relative humidity at 37 °C. Test samples (100 µL) were collected after t = 0, 1, 2, 3, 4, and 5 h and measured via HPLC-DAD. The peak area of the test substance at time t = 0 h was defined as 100%, and all other peak areas were related to calculate the proportional stability. The stability was calculated as % = area/area0 × 100. Stability testing was performed on three independent days with freshly prepared solutions (n = 3).
The system consisted of the following: Elite LaChrom with an L2200 autosampler, L2130 pump, L2350 column oven, L2444 DAD, and EZChrom Elite 3.1.7 software (Hitachi, Tokyo, Japan); column: Kinetex® Biphenyl, 100 Å, 250-4.6 mm (5 µm, same material precolumn; Phenomenex, Torrance, CA, USA); injection volume 30 µL; oven temp.: 25 °C; autosampler temp.: 10 °C; detection wavelength: 340 nm; flow: 1.2 mL/min; A = H2O + 0.1% TFA, B = acetonitrile + 0.1% TFA; gradient: 0–2 min 10% B, 2–10 min 10% B → 100% B, 10–11 min 100% B → 10% B, 11–15 min 10% B.

[2] = initial concentration 10 µM, 3 h, apical compartment
[3] = initial concentration 10 µM, 5 h, apical compartment
[4] = initial concentration 100 µM, 3 h, apical compartment
[5] = initial concentration 100 µM, 3 h, basolateral compartment
[6] = initial concentration 100 µM, 5 h, apical compartment

Row | Molecule | Extent of metabolism (in words) (Caco-2 cell monolayer; 10 µM) | Phase II conjugates containing glucuronic acid or sulfates (Caco-2 cell monolayer; 10 µM) | Extent of metabolism (in words) (Caco-2 cell monolayer; 100 µM) | Phase II metabolites with glucuronic acid or sulfates (Caco-2 cell monolayer; 100 µM) | Extent of phase I and II metabolism (in words) (Caco-2 cell monolayer) | Possible metabolite detected (Caco-2 cell monolayer; [2]) | Possible metabolite detected (Caco-2 cell monolayer; [3]) | Possible metabolite detected (Caco-2 cell monolayer; [4]) | Possible metabolite detected (Caco-2 cell monolayer; [5]) | Possible metabolite detected (Caco-2 cell monolayer; [6]) | Effect on the viability of Caco-2 cells (in words) (Caco-2 cells) | Stability (content relative to t = 0 h) [1] | Metabolites of the aglycones (cleavage of the C–C glycosidic bond) (Caco-2 cell monolayer; 100 µM approach) | Possible metabolite (phase II metabolite identified by MS/MS fragmentation and comparison with reference compound after enzymatic hydrolysis) (Caco-2 cell monolayer; metabolite at RT 3.146 min, m/z 527.0499) | Possible metabolite (phase II metabolite identified by MS/MS fragmentation and comparison with reference compound after enzymatic hydrolysis) (Caco-2 cell monolayer; metabolite at RT 5.134 min, m/z 477.0674) | Possible metabolite (phase II metabolite identified by MS/MS fragmentation and comparison with reference compound after enzymatic hydrolysis) (Caco-2 cell monolayer; metabolite at RT 5.476 min, m/z 461.0724) | Possible metabolite detected (Caco-2 cell monolayer; initial concentration 10 µM, 3 h, basolateral compartment) | Possible metabolite detected (Caco-2 cell monolayer; initial concentration 100 µM, 5 h, cell lysate)
1 | schaftoside | very limited metabolism | No phase II conjugates containing glucuronic acid or sulfates were detectable | a few hydroxylated and methoxylated derivatives | lacked the presence of phase II metabolites with glucuronic acid or sulfates | poorly metabolized in phase I and II reactions | Hydroxy-methoxy-schaftoside | Hydroxy-methoxy-schaftoside | Hydroxy-methoxy-schaftoside | Hydroxy-methoxy-schaftoside | Hydroxy-methoxy-schaftoside | no significant effects at any concentration | approximately 100% | – | – | – | – | – | –
2 | O=c1cc(-c2ccc(O)c(O)c2)oc2c([C@@H]3O[C@H](CO)[C@@H](O)[C@H](O)[C@H]3O)c(O)cc(O)c12 [O, orientin] | broader ranges of phase I and II metabolites | – | extensive metabolism | – | highly metabolized in phase I and II reactions | Orientin-sulfate; also recorded: Hydroxy-methoxy-orientin | Orientin-sulfate; also recorded: Methoxy-orientin | Orientin-sulfate; also recorded: Hydroxy-luteolin-glucuronide; also recorded: Methoxy-luteolin; also recorded: Hydroxy-methoxy-orientin | Orientin-sulfate | Orientin-sulfate; also recorded: Hydroxy-luteolin-glucuronide; also recorded: Hydroxy-methoxy-orientin | no significant effects at any concentration | approximately 100% | metabolites of the corresponding aglycones apigenin and luteolin were also detected | O-sulfate | Quercetin-glucuronide | Luteolin-glucuronide | Orientin-sulfate; also recorded: Hydroxy-methoxy-orientin | Methoxy-orientin
3 | O=c1cc(-c2ccc(O)cc2)oc2c([C@@H]3O[C@H](CO)[C@@H](O)[C@H](O)[C@H]3O)c(O)c([C@@H]3OC[C@H](O)[C@H](O)[C@H]3O)c(O)c12 [IS, isoschaftoside] | very limited metabolism | No phase II conjugates containing glucuronic acid or sulfates were detectable | a few hydroxylated and methoxylated derivatives | lacked the presence of phase II metabolites with glucuronic acid or sulfates | poorly metabolized in phase I and II reactions | – | – | Methoxy-isoschaftoside | – | – | no significant effects at any concentration | approximately 100% | – | – | – | – | – | –
